Laboratory results reported in PubChem BioAssay (NCI).
“And” between values parts separate entries of the source, which are not always exact repeats. Equal entries are not always repeated.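 Assay format: 96-well plates, 48-hour exposure. Here, GI50 denotes the concentration required for 50% inhibition of growth. At the TGI there is no net growth.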 Starred links: 1 amine or outer side, 2 acyl side, 3 side chain; linkers in the order of their positions; H or OH if unused. Positions of bridges follow the written chain, without caps; N, C: chain ends. Non-standard residues stand in square brackets, D forms with d. Residues, ends and D or L forms follow the SMILES beside them. Chains are numbered I, II in the order given. Actinocin(9to1) = Cc1c2oc3c(C)ccc(C(=O)[*:1])c3nc-2c(C(=O)[*:2])c(N)c1=O; NMeY = CN[CH](Cc1ccc(O)cc1)C(=O)O; Sar = CNCC(=O)O

Assays:
Assay in all cases: NCI anticancer screen, dose series, 48 h
[1] = system: SNB-19 CNS
[2] = system: ACHN renal
[3] = system: MALME-3M melanoma
[4] = system: COLO 205 colon
[5] = system: MCF7 breast
[6] = system: MOLT-4 leukemia
[7] = system: MDA-MB-435
[8] = system: A498 renal
[9] = system: NCI-H522 lung
[10] = system: NCI-H460 lung
[11] = system: HCT-15 colon

SMILES	TGI [1]	TGI [2]	TGI [3]	TGI [4]	TGI [5]	TGI [6]	TGI [7]	TGI [8]	TGI [9]	TGI [10]	TGI [11]	GI50 [1]	GI50 [4]	GI50 [5]	GI50 [6]	GI50 [7]	GI50 [10]	GI50 [11]	GI50 [2]	GI50 [9]
O=C1Sc2cc3ccccc3cc2C(=O)Sc2ccc(Br)cc21	32.2 µM	6.02 µM	26.5 µM	34.9 µM	37.9 µM	> 31.6 µM	13.4 µM	33.4 µM	4.52 µM	24.2 µM	7.71 µM									
CC(=O)c1ccccc1NP(=O)(c1ccccc1)c1ccccc1	> 100 µM	> 100 µM	> 100 µM	34.4 µM	> 100 µM	> 100 µM	> 100 µM	> 100 µM	> 100 µM	> 100 µM	> 100 µM									
COc1cc(OC)cc(Oc2nc3ccccc3nc2C(F)(F)F)c1	> 100 µM	> 100 µM	> 100 µM	> 100 µM	> 100 µM	> 100 µM	> 100 µM	73.9 µM	> 100 µM	> 100 µM	> 100 µM									
Cc1ccc(C2SCC(=O)N2c2ccc(-n3c(-c4ccccc4)nc4ccccc4c3=O)cc2)cc1 (centres undefined)	> 100 µM	86.4 µM	73 µM	> 100 µM	> 100 µM	> 100 µM	65.3 µM	90.3 µM	58.6 µM	27.6 µM	52 µM									
Cc1c2oc3c(C)ccc(C(=O)NC4C(=O)NC(C(C)C)C(=O)N5CCCC5C(=O)N(C)CC(=O)N(C)C(Cc5ccc(O)cc5)C(=O)OC4C)c3nc-2c(C(=O)NC2C(=O)NC(C(C)C)C(=O)N3CCCC3C(=O)N(C)CC(=O)N(C)C(Cc3ccc(O)cc3)C(=O)OC2C)c(N)c1=O (centres undefined) (I: TVP[Sar][NMeY] / II: TVP[Sar][NMeY]; ester I:1-I:C, II:1-II:C; linker I:N-II:N via Actinocin(9to1); configuration not given here)	> 1 µM	> 1 µM	0.273 µM and 0.156 µM	0.216 µM and 0.0889 µM	> 1 µM		0.259 µM and 0.147 µM	0.664 µM and 0.11 µM	0.11 µM and 0.031 µM	> 1 µM	> 1 µM	0.00797 µM and 0.00332 µM	0.0175 µM and 0.00568 µM	0.00329 µM	0.00426 µM and 0.00176 µM	0.0459 µM and 0.0099 µM	0.0056 µM and 0.000964 µM	0.988 µM and 0.116 µM		
O=C(/C=C/c1ccccc1)Oc1cccc(O)c1	76.1 µM	> 100 µM	> 100 µM	> 100 µM	> 100 µM	21.8 µM	> 100 µM	> 100 µM	29.5 µM	> 100 µM	34.7 µM									
NS(=O)(=O)c1ccc(/C=C/c2ccc(O)c(O)c2)cc1	> 100 µM	> 100 µM	> 100 µM	53.8 µM	51.9 µM	53.7 µM	51.5 µM	> 100 µM	4.79 µM	> 100 µM	> 100 µM				12.8 µM	16.8 µM		13.9 µM	20.4 µM	2.25 µM
N#CC1C(=S)NC(c2ccccc2)=CC12CCCCC2 (centres undefined)	> 100 µM	72.3 µM	43.2 µM	> 100 µM	42.4 µM	53.2 µM	40.3 µM	50.3 µM	42.2 µM	> 100 µM	53 µM									
C[C@H]1[C@H]2[C@H]3CC[C@@H]4[C@@]5(C)CC[C@H](O)C(C)(C)[C@@H]5CC[C@@]4(C)[C@]3(C)C[C@H](O)[C@@]2(C)C[C@H]2O[C@]21C	49.7 µM	31.1 µM	39.6 µM	58.7 µM	42.3 µM	> 100 µM	46 µM	38.7 µM	48.9 µM	40.1 µM	54.8 µM									
CC1(C)OC(C(=O)Nc2cc3c4ccccc4ccc3c3ccccc23)C(C(=O)N2CCCCC2)O1 (centres undefined)	> 100 µM	> 100 µM	> 100 µM	> 100 µM	> 29.7 µM	> 23.9 µM	> 100 µM	> 100 µM	> 28.3 µM	27.7 µM	> 100 µM									
CC(C)NC(=O)OCc1c(COC(=O)NC(C)C)c(-c2cc[n+](COC(=O)C3CC3)cc2)n2c1CCC2	> 100 µM	> 100 µM	> 100 µM	> 100 µM	> 100 µM	> 100 µM	> 100 µM	> 100 µM	> 100 µM	> 100 µM	> 100 µM									
Cc1ccc2c(c1)C(=S)N1CSCC1c1nncn1-2 (centres undefined)	> 100 µM	> 100 µM	> 100 µM	> 100 µM	> 100 µM	> 100 µM	> 100 µM	> 100 µM	> 100 µM	> 100 µM	> 100 µM									
Cn1c(=O)c2c(ncn2CCNC(CO)C(O)c2ccc([N+](=O)[O-])cc2)n(C)c1=O (centres undefined)	> 100 µM	> 100 µM	> 100 µM	> 100 µM	> 100 µM	> 100 µM	> 100 µM	> 100 µM	> 100 µM	> 100 µM	> 100 µM									
CCCNC(=O)NNC(=O)c1c[nH]c2nc(C)ccc2c1=O	> 100 µM	> 100 µM	> 100 µM	> 100 µM	> 100 µM	> 100 µM	> 100 µM	> 100 µM	> 100 µM	> 100 µM	> 100 µM									
C=C(Cl)C(=CCl)CCC(Br)C(C)(C)Cl (mixture of isomers)	> 10 µM	> 10 µM	> 10 µM	> 10 µM	> 10 µM	> 10 µM	> 10 µM	> 10 µM	> 10 µM	> 10 µM	> 10 µM									
NC(N)=NS(=O)(=O)c1ccc(NNc2c3ccccc3nc3c(C(=O)Nc4ccc(S(=O)(=O)Nc5ncccn5)cc4)cccc23)cc1	> 100 µM	> 100 µM	67.8 µM	> 100 µM	> 100 µM	> 100 µM	> 100 µM	> 100 µM	45.9 µM	> 100 µM	> 100 µM									
Nc1ccc2c(c1)C(=O)N1CCC[C@H]1C(=O)N2	> 100 µM	> 100 µM	> 100 µM	> 100 µM	> 100 µM	> 100 µM	> 100 µM	> 100 µM	> 100 µM	> 100 µM	> 100 µM									
CCOC(=O)CCC(NC(=O)Cc1ccc(Nc2nc3cc(F)c(F)cc3nc2C(=O)OCC)cc1)C(=O)OCC (centres undefined)	> 100 µM	> 100 µM	> 100 µM	> 100 µM	> 100 µM	> 100 µM	> 100 µM	> 100 µM	> 100 µM	> 100 µM	> 100 µM									
